Reference: patent US6911194B2, “Skin preparation” (PhotoCure ASA, priority 2000, dated 2005)
One block for each compound: values may come before it.

Columns and labels:
[1] = tested on: forearm skin of a person; experiment: Erythema and PpIX fluorescence on forearm skin after topical cream and UVA light (Example 7); format: in vivo, human; settings: for content of PpIX produced in the skin areas (fluorescence emission spectra): 20% cream on forearm; for erythema: 20% cream, UVA black light 5 min two hours after application, observed 24 hours later
Description: A cream (Unguentum, Merck) containing 20% ALA, ALA butyl ester and ALA hexyl ester respectively, was applied on three separate areas on the skin of the forearm of a person. Two hours later the skin areas were exposed to UVA light from a black light lamp for 5 min.
The content of PpIX produced in the skin areas was assessed by measuring the fluorescence emission spectra.

[2] = tested on: SKH1 hairless mouse; experiment: Prevention of UV-induced skin cancer by multiple topical ALA-Me PDT sessions (Example 8); format: in vivo
Description: The ability of multiple photodynamic therapy (PDT) sessions with topical ALA methylester (ALA-Me) to prevent skin cancer induced by ultraviolet radiation (UV) was studied in the SKH1 hairless mouse. Groups of 20 mice were exposed 5 days per week to UV from FS20 tubes. One group was treated weekly with 8% topical ALA-Me followed 2 hours later by 1.2 J/cm^2 of light from a slide projector, The number, location, and size of skin tumors were registered weekly. Other study groups included: mice treated with 8% ALA-Me and not exposed to light, mice exposed to UV and vehicle, mice exposed to topical ALA-Me and light but not UV, as well as mice exposed to UV with half of their bodies treated with 8% ALA-Me and half of their bodies treated with the vehicle. […] After 26 weeks of UV exposure large tumors (≧4 mm) were present in 14 mice of the UV group as compared to only one mouse in the UV-ALA-Me group.

[3] = tested on: human skin; experiment: Erythema on human hands after topical cream and blacklight exposure (Example 2); format: in vivo; settings: 20% in Unguentum Merck cream, 5 hours on hands, blacklight 350-400 nm for 5 min or 1 min
Description: A high concentration of ALA and ALA-methyl ester (20%, Sigma) in a cream (Unguentum Merck) was applied to a circular area of 1 cm diameter for 5 hours on both hands of a person, FIGS. 1(A, B). A means ALA, M means ALA-methyl ester. The areas of application are shown by the dotted circles on the figure. The cream with the drugs were carefully washed away and the areas were exposed to ordinary blacklight from a fluorescence tube. The wavelengths of the light fall within the region 350-400 nm, FIG. 2. An exposure of 5 minutes was given to the left hand and an exposure of 1 minute was given to the right hand.

[4] = tested on: human skin; experiment: Erythema and pigmentation on human forearm after topical cream and black light (Example 4, Experiment B); format: in vivo; settings: for erythema: high doses: drug 20%, light 3 min, cream applied 4 hours
Description: ALA and ALA derivatives in cream was applied to different areas on the forearm of a person. Four hours afterwards the cream was removed and the arm was exposed to black light, 380 nm, for 1-5 min. The skin of the arm was examined for two weeks.

[5] = tested on: skin of C3H/Tif hairless mice; experiment: Pigmentation of hairless mouse skin after topical drug and red laser light (Example 4, Experiment A); format: in vivo
Description: One hour after the application, the mice were exposed to light for 1 min (red laser light, 100 m/Wcm^2, 633 nm). […] The treatment was repeated 10 times within 2 weeks.

[6] = PpIX concentration in plasma after topical application in mice (Example 5); format: in vivo, mouse; settings: 20 hr after topical application of 20% cream
Description: A cream was prepared using 20% (wt/wt) ALA, ALA-Me or ALA-Hex in an ointment (Unguentum, Merck, Darmstadt, Germany). Approximately 0.2 mg of the freshly prepared cream was applied on a single spot of 1 cm diameter on normal skin of each mouse. An adhesive dressing (OpSite Flexigrid, Smith and Nephew Medical, LTD, Hull, England) with a punched hole of 1 cm in diameter was first put on the skin. Then the cream was applied on the skin in the punched hole and covered with another similar dressing. 20 hours application time was used.
Female Balb/c athymic nude mice were obtained from Bomholt Gaard (Ry, Denmark). At the start of each experiment, they were 7-8 weeks old and weighed 18-25 g. Three mice were housed per cage with autoclaved filter covers in a room with subdued light at constant temperature (24-26° C.) and humidity (30-50%). Food and bedding were sterilized and the mice were given tap water ad libitum in sterilized bottles. For proper application of the cream, anaesthesia, hypnorm dormicum (approximately 4 ml/kg body weight), was i.p. injected into the mice.
Immediately after mice were killed, whole blood was drawn directly from the right atrium of the heart. The total volume of blood obtained from each mouse was approximately 0.2 ml and was selected in EDTA-treated micro-tubes. The red blood cells were fluorimetrically determined as described above.

[7] = tested on: naked mice; settings: topical ALA, simulated solar UV radiation; cited from earlier work
[8] = tested on: skin of nude BALB/c mice; experiment: Localization of PpIX fluorescence on skin of nude mice under UV lamp (Example 6)
[9] = tested on: Balb/c athymic nude mice; experiment: Tissue distribution of PpIX fluorescence after topical application in mice (Example 5); format: in vivo, mouse; settings: 20% cream topical, compared to ALA methyl ester
Description: ALA, ALA methyl ester and ALA hexyl ester containing cream was applied locally on the skin surface of hairless mice. Fluorescence intensities were used as indications of the concentration of PpIX on the application site (skin), in remote skin spots, in liver, intestine, lungs, muscle and brain and plasma.
A cream was prepared using 20% (wt/wt) ALA, ALA-Me or ALA-Hex in an ointment (Unguentum, Merck, Darmstadt, Germany). Approximately 0.2 mg of the freshly prepared cream was applied on a single spot of 1 cm diameter on normal skin of each mouse. An adhesive dressing (OpSite Flexigrid, Smith and Nephew Medical, LTD, Hull, England) with a punched hole of 1 cm in diameter was first put on the skin. Then the cream was applied on the skin in the punched hole and covered with another similar dressing. […]
Female Balb/c athymic nude mice were obtained from Bomholt Gaard (Ry, Denmark). At the start of each experiment, they were 7-8 weeks old and weighed 18-25 g. Three mice were housed per cage with autoclaved filter covers in a room with subdued light at constant temperature (24-26° C.) and humidity (30-50%). […]
The method for determining the amounts of PpIX in tissues was described previously (Ma et al., 1998). […] Levels of PpIX in the supernatants were quantitatively determined by recording fluorescence emission spectra of the samples using a Perkin-Elmer (Norwalk, Conn.) LS 50B spectrofluorimeter. […]

erythema [1]: significant but weaker erythema
SMILES: CCCCOC(=O)CCC(=O)CN [ALA butyl ester]
content of PpIX produced in the skin areas (fluorescence emission spectra) [1]: smaller

erythema [1]: significant but weaker erythema
SMILES: CCCCCCOC(=O)CCC(=O)CN [ALA hexyl ester, 5-aminolevulinic acid hexyl ester]
content of PpIX produced in the skin areas (fluorescence emission spectra) [1]: smallest

SMILES: COC(=O)CCC(=O)CN [ALA methyl ester, 5-aminolevulinic acid methyl ester]
delay in tumor appearance, half body ALA-Me and half body vehicle ([2]; UV-exposed mice treated on one side with 8% ALA-Me, other side vehicle): observed only on the side treated with ALA-Me
number of mice with large tumors (≧4 mm) ([2]; after 26 weeks of UV exposure, groups of 20 mice): one
protoporphyrin IX accumulation in tumors versus adjacent UV exposed skin and normal skin ([2]; in vivo fluorescence spectroscopy and fluorescence microscopy at the time of light exposure): preferential accumulation of protoporhyrin IX in tumors
mortality or morbidity ([2]; topical ALA-Me-PDT): without increasing mortality or morbidity
time when the first tumor appeared ([2]; weekly 8% topical ALA-Me plus 1.2 J/cm^2 light, compared to mice only exposed to UV): significant delay
erythema spreading out from the area of application [3]: only in a half-circle in the upper part of the hand
erythema [4]: led to erythema
skin pigmentation ([5]; 1% cream, 1 min red laser light, repeated 10 times within 2 weeks): gradually pigmented
erythema ([5]; 1% in Unguentum Merck cream, light 1 min (633 nm) one hour after application): No erythema was observed

localization of protoporphyrin IX (PpIX) fluorescence ([8]; 20% cream, photos under UV lamp after 8 hours): localized all over the skin
site of PpIX production after application on the skin of mice (summary statement) ([8]; applied on the skin of mice): induces PpIX in the whole mouse
erythema [1]: significant pronounced erythema
erythema [4]: led to erythema
SMILES: NCC(=O)CCC(=O)O [ALA, 5-aminolevulinic acid]
concentration in plasma [6]: higher than both ALA methylester and ALA hexylester
erythema spreading out from the area of application [3]: circular, covering both the upper and the lower part of the hand
UV induction of skin cancer [7]: photo-induced carcinogenesis was delayed
skin reaction of exposed areas [7]: erythematous
PpIX outside the application site ([9]; 5 hrs application time): significally more PpIX outside the application site
PpIX outside the application site ([9]; 20 hrs application time): significally more PpIX outside the application site
content of PpIX produced in the skin areas (fluorescence emission spectra) [1]: highest concentration of PpIX
pigmentation ([4]; 20% ALA, 1 min light (slightly erythemogenic), 2 weeks after light exposure): led to later pigmentation
pigmentation (melanogenesis) ([4]; one week after a low dose single nonerythemogenic treatment): clearly visible pigmentation (melanogenesis)
